The values that follow come from article PMC5607265, “Design, synthesis and structure-activity relationship of 3,6-diaryl-7H-[1,2,4]triazolo[3,4-b][1,3,4]thiadiazines as novel tubulin inhibitors” (Scientific Reports, 2017).

The target in series [1] is T1, highly purified tubulin from porcine brain (Sus scrofa, UniProt P02554).
T1 construct: highly purified tubulin from porcine brain; purchased Cytoskeleton BK011P; host or cells: porcine brain (tissue-purified)
Put plainly: Tubulin polymerization assay. Type of series: biochemical. As to conditions: 37 °C; for effect on tubulin polymerization in words: CA-4 0.5-4 µM, 6i 0.1-8.0 µM, paclitaxel 5.0 µM. Here is the method:
This assay uses highly purified tubulin from porcine brain.
The reaction was monitored at 37 °C.
(§1) Tubulin polymerization assay[33] was conducted with reagents as described in the kit manufacturer (Cytoskeleton, Cat.#BK011P) in a 96-well plate. In brief, tubulin was re-suspended in ice-cold G-PEM buffer (80 mM PIPES, 2 mM MgCl2, 0.5 mM EGTA, 1 mM GTP, 20% (v/v) glycerol) and added to wells on a 96-well plate containing the designated concentration of drugs or vehicle. Samples were mixed well, and tubulin assembly was monitored (emission wavelength: 450 ± 20 nm; excitation wavelength: 360 ± 20 nm) at 1 min intervals for 90 min at 37 °C in a SpectraMax 340PC spectrophotometer (Biotek Synergy HT, Winooskin, VT, USA). IC50 values were calculated from data at the 20 min time point using GraphPad Prism software. Experiments were repeated three times.
as §1, with “assay” for “assay[33]”, “450±20” for “450 ± 20”, “360±20” for “360 ± 20”, “timepoint” for “time point”

The test system of series [2] is tubulin network of SGC-7901 cells. The experiment in a line: Immunofluorescence of tubulin network. Type of series: cell-based, human. As to conditions: 2-fold IC50 (0.022 µM), 12 h. Here is the method:
CA-4 was employed as positive control in this experiment.
Figure 4 Effects of 6i on tubulin network of SGC-7901 cells by immunofluorenscence. […] The left and middle panels represent the tubulin assembly stained with DAPI and FITC and the right panel represents a merge of the corresponding left and middle panels.
The SGC-7901 cells were seeded at a density of 1 × 10^4 per well on a 24-well plate and grown for 24 h. […] Cells in the control group were treated with culture medium. The control and treated cells were fixed with 4% formaldehyde in PBS for 30 min at -20 °C, then washed twice with PBS and permeabilized with 0.1% (v/v) Triton X-100 in PBS for 5 min. Then, the cells were blocked with 3% bovine serum albumin (BSA) in PBS for 30 min. […] The cells were washed with PBS to remove unbound secondary antibody, nucleus was stained with 4,6-diamino-2-phenolindol dihydrochloride (DAPI) and then, immunofluorescence was detected using a fluorescence microscope (Olympus, Tokyo, Japan).
Immunostaining was carried out to detect microtubule associated tubulin protein after exposure to 6i and CA-4. […] The cells were washed with PBS to remove unbound secondary antibody, nucleus was stained with 4,6-diamino-2-phenolindol dihydrochloride (DAPI) and then, immunofluorescence was detected using a fluorescence microscope (Olympus, Tokyo, Japan).

Series [3] has as its system lung adenocarcinoma A549 cells. The experiment in a line: MTT antiproliferative assay, A549. It is filed as cell-based, human. To be noted: Homo sapiens, A549; MTT assay, 24 h exposure, triplicate; read-out: IC50 A549. Here is the method:
(§2) The SGC-7901, A549 and HT-1080 cell lines were purchased from the American Type Culture Collection (ATCC, Manassas, VA, USA). […] Briefly, approximately 3 × 10^4 cells were seeded in a 96-well plate. After 24 h of incubation at 37 °C, cells were exposed to compounds of differing concentrations for 24 h. After treatment, cells were washed with 1X PBS followed by addition of 100 µL of 0.05% MTT reagent to each well, followed by incubation for 4 h at 37 °C. After incubation, the supernatant from each well was carefully removed and the formazan crystals were dissolved in 100 µL of DMSO. The colour density was measured spectrophotometrically at 490 nm using a microplate reader (SpectraMax Plus384, Molecular Devices Corp., USA). The data were calculated and plotted as percent viability compared to control.
as §2

Series [4] relates to HCT116. Set-up: method as in Org. Biomol. Chem. 2005, 3, 2657-2660. As to conditions: ref Org. Biomol. Chem. 2005, 3, 2657-2660; cited from earlier work.

T1 sequence (P02554 whole entry): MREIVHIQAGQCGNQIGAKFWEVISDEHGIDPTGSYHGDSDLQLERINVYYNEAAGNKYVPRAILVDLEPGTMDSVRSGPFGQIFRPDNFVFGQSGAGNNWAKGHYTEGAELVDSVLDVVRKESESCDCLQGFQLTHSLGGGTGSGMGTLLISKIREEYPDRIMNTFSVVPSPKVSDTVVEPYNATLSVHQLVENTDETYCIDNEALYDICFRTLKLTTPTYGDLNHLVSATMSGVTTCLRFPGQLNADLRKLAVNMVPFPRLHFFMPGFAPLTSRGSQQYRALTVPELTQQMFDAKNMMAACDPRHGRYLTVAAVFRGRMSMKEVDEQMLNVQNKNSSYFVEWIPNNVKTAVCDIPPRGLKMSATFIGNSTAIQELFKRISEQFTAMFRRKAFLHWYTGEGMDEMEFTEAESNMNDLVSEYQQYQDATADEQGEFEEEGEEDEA
T1 sequence (P02550 whole entry partner): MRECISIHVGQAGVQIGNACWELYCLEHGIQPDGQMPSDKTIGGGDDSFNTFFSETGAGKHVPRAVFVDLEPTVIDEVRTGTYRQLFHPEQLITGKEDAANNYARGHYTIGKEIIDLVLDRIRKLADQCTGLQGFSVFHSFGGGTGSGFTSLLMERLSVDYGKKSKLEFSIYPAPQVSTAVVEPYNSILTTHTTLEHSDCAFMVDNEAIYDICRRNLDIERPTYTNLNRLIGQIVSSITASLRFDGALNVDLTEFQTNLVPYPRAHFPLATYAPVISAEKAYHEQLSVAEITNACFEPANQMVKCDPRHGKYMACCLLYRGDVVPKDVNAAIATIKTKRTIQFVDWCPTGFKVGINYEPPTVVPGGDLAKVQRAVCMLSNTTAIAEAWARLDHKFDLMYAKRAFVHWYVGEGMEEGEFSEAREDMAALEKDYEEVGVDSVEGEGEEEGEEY

In turn, `COc1cccc(-c2nnc3n2N=C(c2ccc(OC)c(N)c2)CS3)c1` [Compound 6i, 3-(3-Methoxyphenyl)-6-(3-amino-4-methoxyphenyl)-7H-[1,2,4]triazolo[3,4-b][1,3,4]thiadiazine] registered a melting point of 138 to 140 °C. The “effect on tubulin polymerization in words” value in series [1] is recorded as “dose-dependent inhibition of tubulin polymerization”. Besides, in series [1] (data at the 20 min time point, read-out: IC50 of tubulin polymerization inhibition), the IC50 is 1600 nM. In series [2], the “effect on microtubule/tubulin network” value was “the tubulin network showed a disruption”. The IC50 in series [3] turned out to be 15 nM.
`COc1ccc(/C=C\c2cc(OC)c(OC)c(OC)c2)cc1O` [CA-4, Combretastatin A-4, reference compound]: the “effect on tubulin polymerization in words” value in series [1] was “dose-dependent inhibition of tubulin polymerization”. For the same compound, the “effect on microtubule/tubulin network” value in series [2] was “the tubulin network showed a disruption”. In addition, the IC50 in series [4] is 16 nM; in series [3], 9 nM.
